According to patent publication US20110027185A1, “Methods of Screening for Anti-Angiogenic Compounds” (priority 2007, published 2011):
pIC50: −log10 of the molar value.

Experiments:
[1] = test system: PC-3 cell lines of human prostate cancer; settings: cited from earlier work
B16-BL6 melanoma cells = settings: same dosage (1.8 mg/kg); cited from earlier work
HUVEC [2] = experiment: HUVEC growth inhibition assay (NCI); format: cell-based, human; settings: Homo sapiens, 72 h, crystal violet
Method: Angiogenesis assays were provided by the NCI, details of the assay protocols are given below. In each assays TNP-470 and paclitaxel (Taxol®) were used as reference compounds. HUVEC (1.5×10^3) were plated in a 96-well plate in 100 μL of EBM-2 (Clonetic #CC3162). […] On day 0, one plate was stained with 0.5% crystal violet in 20% methanol for 10 minutes, rinsed with water, and air-dried. The remaining plates were incubated for 72 h at 37° C. After 72 h, plates were stained with 0.5% crystal violet in 20% methanol, rinsed with water and air-dried. The stain was eluted with 1:1 solution of ethanol:0.1 M sodium citrate (including day 0 plate), and absorbance was measured at 540 nm with an ELISA reader (Dynatech Laboratories). Day 0 absorbance was subtracted from the 72 h plates and data was plotted as percentage of control proliferation (vehicle treated cells).

[3] = test system: WiDr cell lines of human colon cancer; settings: cited from earlier work
HUVEC [4] = experiment: HUVEC cell migration (chemotaxis) assay, Boyden chamber (NCI); format: cell-based, human; settings: Homo sapiens, 5 h
Method: Angiogenesis assays were provided by the NCI, details of the assay protocols are given below. In each assays TNP-470 and paclitaxel (Taxol®) were used as reference compounds. Migration was assessed using the 48-well Boyden chamber and 8 μm pore size collagen-coated (10 μg/mL rat tail collagen; Collaborative Laboratories) polycarbonate filters (Osmonics, Inc.). The bottom chamber wells received 27-29 μL of DMEM medium alone (baseline) or medium containing chemo-attractant (bFGF, VEGF or Swiss 3T3 cell conditioned medium). The top chambers received 45 μL of HUVEC cell suspension (1×10^6 cells/mL) prepared in DMEM+1% BSA with or without test compound. After 5 h incubation at 37° C., the membrane was rinsed in PBS, fixed and stained in Diff-Quick solutions. The filter was placed on a glass slide with the migrated cells facing down and cells on top were removed using a Kimwipe. The testing was performed in 4-6 replicates and five fields were counted from each well. Negative, unstimulated, control values were subtracted from stimulated control and drug treated values and data was plotted as mean migrated cell±S.D. The IC50 was calculated from the plotted data.

[5] = test system: Lewis lung adenocarcinoma; settings: Lewis lung adenocarcinoma model; cited from earlier work
[6] = test system: protein synthesis in the cultured rat cells; settings: cited from earlier work
[7] = test system: human umbilical vein endothelial cells (HUVEC); settings: cited from earlier work
FBP21 = target: T1, FBP21 (Homo sapiens, UniProt O75554); experiment: Phage display biopanning with biotinylated bait, Human Colon Tumour Library; format: binding; settings: SDS and E. coli elution
T1 construct: encode 99 amino acids in frame with the phage coat protein of which a segment of 83 residues share 100% homology with FBP21; purchased Novagen; host or cells: T7 phage amplified in E. coli BLT5403
T1 sequence (O75554 with tags, fused parts or gaps): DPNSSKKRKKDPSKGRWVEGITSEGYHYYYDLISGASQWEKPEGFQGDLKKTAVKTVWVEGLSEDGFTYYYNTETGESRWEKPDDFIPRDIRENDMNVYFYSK
Method: Streptavidin wells were incubated with 1 μM biotinylated probe at 4° C. overnight to prepare the wells for biopanning. After incubation, unbound biotinylated probe was removed from the well by washing with phosphate buffered saline (PBS). Wells were then blocked with blocking solution (3% skimmed milk in PBS) for at least one hour at room temperature. Blocked wells were then briefly washed with PBS and were ready for biopanning use. […] In the first round of biopanning, 0.15 mL of amplified phage library was added to an empty streptavidin coated well and incubated at room temperature for at least 1 hour. This step was included to deselect any phage displaying streptavidin binding proteins. After incubation, the phage were removed from the well and mixed with 50 μL 4× blocking solution (12% skimmed milk in PBS) and incubated at room temperature for at least one hour. 0.125 mL of blocked phage library was added to each pre-prepared biotinylated well and incubated at room temperature for at least one hour. […] After incubation, unbound phage were removed from the well with wash solution. The wash solution was varied depending on the round of biopanning. For first round of biopanning PBS1 was used. For subsequent rounds the stringency of the wash was increased by using sequentially PBS2, PBS3 and PBS4 (see Table I). […]

[8] = test system: WiDr cells induced angiogenesis; settings: 1.8 mg/kg intraperitoneal injection, mouse dorsal air sac model; cited from earlier work
capillary tube formation = settings: rat aorta matrix culture model, cited from earlier work
HUVEC [9] = experiment: HUVEC cord formation assay on matrigel (NCI); format: cell-based, human; settings: Homo sapiens, 24 h
Method: Angiogenesis assays were provided by the NCI, details of the assay protocols are given below. In each assays TNP-470 and paclitaxel (Taxol®) were used as reference compounds. Matrigel (60 μL of 10 mg/mL; Collaborative Lab #35423) was placed in each well of an ice-cold 96-well plate. The plate was allowed to sit at room temperature for 15 minutes then it was incubated at 37° C. for 30 minutes to permit the matrigel to polymerize. In the mean time, HUVEC were prepared in EGM-2 (Clonetic #CC3162) at a concentration of 2×10^5 cells/mL. […] The cells (500 μL) and the drug at 2 times concentration (500 μL) were mixed and 200 μL of this suspension was placed in duplicate on the polymerized matrigel. After 24 h incubation, triplicate pictures were taken for each concentration using a Bioquant Image Analysis system. Drug effect (IC50) is assessed compared to untreated controls by measuring the length of cords formed and number of junctions.

[10] = test system: VEGFxxx and VEGFxxxb expression in RPE cells; experiment: VEGF isoform ELISA of media of treated RPE cells; format: cell-based; settings: 0.5 μM or 5 μM, 72 hours
Method: Media was sampled after 72 hours treatment, and assessed for total VEGF and VEGFxxxb expression (see Bates et al., 2002, Woolard et al., 2004 and Varey et al., 2008 for methods).

C[C@@H]1C[C@H](C)C[C@H](C)[C@@H](O)CC(=O)O[C@H]([C@@H]2CCC[C@H]2C(=O)O)C/C=C/C=C(/C#N)[C@H](O)[C@@H](C)C1 [Borrelidin]
effect against PC-3 cell lines [1]: also against PC-3 cell lines | formation of spontaneous lung metastases of B16-BL6 melanoma cells (B16-BL6 melanoma cells): effective for the inhibition of the formation of spontaneous lung metastases | pIC50 (HUVEC [2]): 8.49 | effect against WiDr cell lines [3]: effective against WiDr cell lines | pIC50 (HUVEC [4]): 7.20 | propagation of metastatic nodules after removal of the primary tumour [5]: weakly inhibited | anti-angiogenesis IC50 lower than IC50 for inhibition of protein synthesis [6]: 50 fold | inhibition of protein synthesis, IC50 ([6]; cultured rat cells): 20 ng/mL | anti-proliferative activity towards HUVEC, IC50 ([7]; cell growth assay): 6 ng/mL | HUVEC anti-proliferative IC50 weaker than anti-angiogenesis activity ([7]; measured in the same medium): 15 fold | identification of FBP21 fragment by biopanning (binding) (FBP21): consistently identified an FBP21 fragment | increment of vascular volume induced by WiDr cells [8]: significantly reduce the increment of vascular volume | inhibition of capillary tube formation, IC50 (capillary tube formation): 0.4 ng/mL | pIC50 (capillary tube formation; read-out: inhibition of capillary tube formation, IC50): 9.10 | pIC50 (HUVEC [9]): 7.33 | VEGFxxx expression (ELISA) [10]: significant downregulation | VEGFxxxb expression (ELISA) [10]: significant upregulation
